Source: patent publication US7879846B2, “Serine hydrolase inhibitors” (Kyorin Pharmaceutical Co.., Ltd., priority 2006, dated 2011)

Target: T1, Human sputum neutrophil elastase (Homo sapiens, UniProt P08246)
T1 construct: purchased Elastin Products Co; host or cells: human sputum (natural source)
T1 sequence (P08246 30-247 limits assumed): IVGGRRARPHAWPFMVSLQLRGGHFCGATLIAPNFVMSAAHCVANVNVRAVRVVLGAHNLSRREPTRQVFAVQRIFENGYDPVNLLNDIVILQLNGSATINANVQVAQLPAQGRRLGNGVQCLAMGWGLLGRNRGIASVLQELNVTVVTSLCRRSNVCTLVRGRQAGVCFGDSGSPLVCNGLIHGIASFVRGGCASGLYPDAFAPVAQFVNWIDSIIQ
Test: Inhibitor IC50 against human neutrophil elastase (fluorogenic MeOSuc-AAPV-AMC substrate)
Format: biochemical
Settings: 20 min preincubation, read-out: HNE IC50
Description: Determination of Inhibitor IC50 Values Against Human Neutrophil Elastase
Human sputum neutrophil elastase (Elastin Products Co.) was diluted into Assay Buffer A (200 mM Tris pH 7.4, 1 mg/ml BSA) to a working concentration of 0.55 U/ml. […] DMSO alone was used as the negative control. MeOSuc-AAPV-AMC (Bachem) substrate was dissolved in DMSO to 20 mM and further diluted to 1 mM in Assay Buffer A immediately before use. Substrate was added to the elastase assay at a final concentration of 1×10^−4 M. The reaction was allowed to proceed for 20 minutes at room temperature and then quenched with acetic acid at a final concentration of 3% (v/v). […] Fluorescence intensity versus inhibitor concentration was plotted and fit to the Hill equation to quantify IC50 values.

Row | IC50 | Structure (SMILES)
1 | 61 to 150 nM | CCCc1cc(OC)cc2nc(-c3cccnc3N3CCN(CC4CC4)CC3)oc(=O)c12 [Compound 157]
2 | > 150 nM | Cc1ccc(Sc2ncccc2-c2nc3cccc(C)c3c(=O)o2)cc1 [Compound 24]
3 | 16 to 60 nM | C#CCOC(=O)NCCN1CCN(c2ncccc2-c2nc3cc(OC)cc(CC)c3c(=O)o2)CC1 [Compound 227]
4 | 16 to 60 nM | CCc1cc(OC)cc2nc(-c3cccnc3N3CCC(N(C)C)CC3)oc(=O)c12 [Compound 220]
5 | 61 to 150 nM | CSc1ncccc1-c1nc2cccc(Cl)c2c(=O)o1 [Compound 27]
6 | 16 to 60 nM | CCCc1cc(OC)cc2nc(-c3cccnc3N3CC[C@H](N(C)C)C3)oc(=O)c12 [Compound 148]
7 | < 15 nM | CCc1cccc2nc(-c3cccnc3N(C)CCN(C)C)oc(=O)c12 [Compound 154]
8 | 61 to 150 nM | COc1cc(C(C)C)c2c(=O)oc(-c3cccnc3N3CC[C@@H](N(C)C)C3)nc2c1 [Compound 110]
9 | < 15 nM | CCc1cccc2nc(-c3cccnc3-n3cc[n+](CCCS(=O)(=O)[O-])c3)oc(=O)c12 [Compound 87]
10 | > 150 nM | O=c1oc(-c2cccnc2Oc2ccccc2)nc2cc(Cl)cc(Cl)c12 [Compound 14]
11 | 61 to 150 nM | COc1cc(C2CC2)c2c(=O)oc(-c3cccnc3N3CC[C@H](N(C)C)C3)nc2c1 [Compound 165]
12 | 16 to 60 nM | CCc1cc(OC)cc2nc(-c3cccnc3N3CCCC(N(C)C)C3)oc(=O)c12 (centres unmarked) [Compound 212]
13 | < 15 nM | CCc1cc(OC)cc2nc(-c3cccnc3N3CCN(CC4OCCO4)CC3)oc(=O)c12 [Compound 191]
14 | < 15 nM | CCc1cc(OC)cc2nc(-c3cccnc3N3CC[C@@H](N(C)C)C3)oc(=O)c12 [Compound 131]
15 | < 15 nM | CCc1cc(OC)cc2nc(-c3cccnc3N(C)CCCN(C)C)oc(=O)c12 [Compound 241]
16 | 16 to 60 nM | Cc1cccc2nc(-c3cccnc3SCCS(=O)(=O)c3ccccc3)oc(=O)c12 [Compound 29]

Row | IC50 | Structure (SMILES)
17 | 16 to 60 nM | CCc1cc(OC)cc2nc(-c3cccnc3N3CCCCC3)oc(=O)c12 [Compound 226]
18 | > 150 nM | CCN(CC)CC1CN(c2ncccc2-c2nc3cccc(C)c3c(=O)o2)CCO1 (centres unmarked) [Compound 60]
19 | 16 to 60 nM | CCc1cc(OC)cc2nc(-c3cccnc3N3CCCC(CN4CCOCC4)C3)oc(=O)c12 (centres unmarked) [Compound 243]
20 | > 150 nM | COC(=O)[C@H]1CCCN1c1ncccc1-c1nc2cccc(OC)c2c(=O)o1 [Compound 43]
21 | > 150 nM | COc1cccc2nc(-c3cccnc3-n3ccnc3)oc(=O)c12 [Compound 66]
22 | < 15 nM | CCc1cc(OC)cc2nc(-c3cccnc3N3CC[C@H]([N+](C)(C)C)C3)oc(=O)c12 [Compound 232, {1-[3-(5-Ethyl-7-methoxy-4-oxo-4H-benz[d][1,3]oxazin-2-yl)-pyridin-2-yl]-pyrrolidin-3-yl}-trimethyl-ammonium acetate]
23 | 61 to 150 nM | CSc1ncccc1-c1nc2cccc(C)c2c(=O)o1 [Compound 23]
24 | > 150 nM | COCCOCCOCCOCCOCCOCCOCCOc1ncccc1-c1nc2cc(OC)cc(C(C)C)c2c(=O)o1 [Compound 108]
25 | 16 to 60 nM | Cc1cccc2nc(-c3cccnc3Oc3ccc4c(c3)OCO4)oc(=O)c12 [Compound 37]
26 | < 15 nM | CCc1cc(OC)cc2nc(-c3cccnc3N3CCC(N4CCCC4)CC3)oc(=O)c12 [Compound 215]
27 | < 15 nM | CCc1cc(OC)cc2nc(-c3cccnc3N3CC[C@@H](N(C)CCO)C3)oc(=O)c12 [Compound 270]
28 | > 150 nM | COc1cc(C)c2c(=O)oc(-c3cccnc3-n3ccnc3)nc2c1 [Compound 83]
29 | < 15 nM | CCc1cc(OC)cc2nc(-c3cccnc3N3CCC(c4c[nH]cn4)CC3)oc(=O)c12 [Compound 275]
30 | > 150 nM | O=c1oc(-c2ncccc2-n2ccnc2)nc2cccc(Cl)c12 [Compound 70]
31 | < 15 nM | CCc1cc(OC)cc2nc(-c3cccnc3N3CC[C@@H](N4CCNC(=O)C4)C3)oc(=O)c12 [Compound 266]
32 | < 15 nM | CCc1cc(OC)cc2nc(-c3cccnc3N3CCN(c4ccncc4)CC3)oc(=O)c12 [Compound 252]
